These results are taken from patent US20080033026A1, “Antimicrobial compositions, methods and systems” (priority 2006, published 2008).

Type in all cases: cell-based
For assay [1], the system named is Escherichia coli 0157:H7 (ATCC 43895). Kind of assay: MIC and MBC determination (broth dilution). As to the method: (§1) The determination of the MIC and MBC of 9-decenoic acid conformed to the procedure printed in the Federal Register, June 1994 and the present NCCLS M11-A4 protocol. Challenge organisms were prepared as follows. The MIC and MBC of 9-decenoic acid and the methyl ester of 9-decenoic acid were determined for the following challenge organisms: Staphylococcus aureus (ATCC 6538), Pseudomonas aeruginosa (ATCC 15442), Staphylococcus epidermidis (ATCC 12228), Klebsiella pneumoniae (ATCC 4352), Escherichia coli 0157:H7 (ATCC 43895) and Candida albicans (ATCC 10231). Stock cultures of each organism were transferred onto suitable culture media, Mueller-Hinton Agar (MHA) plates, and incubated for 24 hours (+2 hours) at 37° C. (+2° C.). On the day of the test, the top of at least three to five well-isolated colonies were transferred via wire loop to a tube containing 4 to 5 ml of Trypticase Soy Broth (TSB). The TSB culture was incubated for 2 to 6 hours and turbidity was adjusted with sterile saline to achieve the turbidity of a McFarland 0.5 Standard.
(§2) The concentrated 9-decenoic acid (97%) was diluted in Mueller-Hinton Broth (MHB) to yield a 25,000 ppm stock solution of the 9-decenoic acid. For each organism, 12 dilutions of the 9-decenoic acid in MHB were prepared ranging from 0.25% to 0.00049%. The test solution of the methyl ester of 9-decenoic acid was formulated in the same manner.
(§3) A 2-ml aliquot of appropriately diluted 9-decenoic acid solution or methyl ester of 9-decenoic acid was placed in each tube. Each tube was inoculated with 0.05 ml of a 1:10 dilution of one challenge organism. Tubes were incubated at 37° C. (±2° C.) for 20-24 hours and observed for microbial growth visually and by spectrophotometer. […] (±2° C.) for 20-24 hours and visually observed for growth.
(§4) Controls were run for sterility, viability and organism confirmation. It was determined that all cultures were viable and pure.
(§5) The MBC was defined as the concentration of 9-decenoic acid or the methyl ester of 9-decenoic acid that completely eradicated viable organisms from the test system.

The test system of assay [2] is Pseudomonas aeruginosa (ATCC 15442). Kind of assay: MIC and MBC determination (broth dilution). Conditions: Mueller-Hinton Broth, 20-24 h, 37° C. The procedure:
as §1, §2, §3, §4, §5

The test system of assay [3] is Candida albicans (ATCC 10231). Nature of the assay: MIC and MBC determination (broth dilution). As to the method:
as §1, §2, §3, §4, §5
On the technique in general: Broth dilution looks for growth in wells or tubes with falling amounts of substance.

Assay [4] concerns Klebsiella pneumoniae (ATCC 4352). Kind of assay: MIC and MBC determination (broth dilution). Conditions: Mueller-Hinton Broth, 20-24 h, 37° C. As to the method: as §1, §2, §3, §4, §5
Assay [5] deals with Aspergillus parasiticus (ATCC 13539). Kind of assay: MIC on Potato Dextrose Agar. Conditions: PDA agar, 25-30° C. As to the method:
(§6) The efficacy of antimicrobial compositions in accordance with aspects of the invention against the following organisms was determined as follows. The following organisms were incubated in the presence of varying concentrations of 9-decenoic acid (9-DA) on an agar surface: Aspergillus parasiticus (ATCC 56857), Trichoderma virens (ATCC 9645), Aspergillus flavus (ATCC 96045), Cladosporium cladosporiodes (ATCC 16022), Aspergillus flavus (ATCC 5917), Aspergillus oryzae (ATCC 10124), Aspergillus parasiticus (ATCC 13539), Ulocladium atrum (ATCC 52426), Candida albicans (ATCC 11651), Aspergillus niger (ATCC 11414).
(§7) Fungal spores were hydrated in 0.1% Tween 80 and then plated onto Potato Dextrose Agar (PDA) (Difco # 213400; Becton, Dickinson and Company, Sparks, Md.) and incubated at 25-30° C. for six (6) days. The spores were washed from the surface with 5 ml of 0.1% Tween 80 and enumerated.
(§8) PDA plates were prepared according to the manufacturer's instructions through sterilization. The agar was tempered to approximately 50° C. and filter sterilized. Antimicrobial compositions containing 9-DA were added by percent weight to molten autoclaved PDA media, with consideration of specific gravity (0.915 g/mL for 9-DA) and purity (98% for 9-DA). The agar was thoroughly mixed and poured into sterile petri plates and allowed to solidify.
(§9) The agar plates were inoculated with the spore solution to achieve 10^2 spores/plate. The plates were incubated at 25-30° C. in Ziploc bags with a wet paper towel to keep the moisture level high. The plates were examined for growth at 1, 2, 3, 4, 8, 11, 15, 17, 23, 29 and 31 days. The percent coverage of growth on the agar surface was recorded at each sample point.

For assay [6], the system named is Aspergillus oryzae (ATCC 10124). Kind of assay: MIC on Potato Dextrose Agar. Conditions: PDA agar, 25-30° C. The procedure: as §6, §7, §8, §9
Setting [7] is: Mueller-Hinton Broth, 20-24 h, 37° C.

On to `C=CCCCCCCCC(=O)O` [9-decenoic acid], for which the MIC in assay [1] (setting [7]) is recorded as 0.125%; in assay [2], 0.0625%; in assay [3] (setting [7]) it was 0.0625%; in assay [4] it was 0.0625%; in assay [5] it was 0.05%; in assay [6], 0.05%. The MBC is on record as 0.125% in assay [1] (subculture on TSA) and 0.0625% in assay [3] (subculture on TSA).
